Measurements reported in patent US9226503B2, “Composition and method for attraction of emerald ash borer Agrilus planipennis fairmaire (coleoptera: buprestidae)” (Her Majesty the Queen in Right of Canada, as represented by …, priority 2011, dated 2016).

Experiments:
A. planipennis antennae = test: EAG dose-response study; design: species or system Agrilus planipennis; conditions: for EAG responsiveness of female antennae compared with male antennae: particularly at higher doses, P<0.0001; for EAG response of female antennae, (3Z)- vs (3E)-lactone: stimulus doses 0.01-100 μg, P=0.91
Text: EAG analyses were made by methods and equipment generally described by Cossé & and Bartelt (2000). EAG connections were made by inserting a glass-pipette silver-grounding electrode into the back of an excised beetle head. A second glass-pipette silver-recording probe was placed in contact with the distal end of one antenna. Both pipettes were filled with Beadle-Ephrussi (Ephrussi and Beadle 1936) saline.
For the EAG-dose-response study, (3Z)- and (3E)-lactones were purified (99.9% purity by GC/MS) by high performance liquid chromatography (HPLC) using a Waters 515 pump, a Waters R401 refractive index detector, and a 25 cm by 0.46 cm i.d. silica column (Adsorbosphere Silica 5 μm, Alltech, Deerfield, Ill.), treated with silver nitrate as described by Heath and Sonnett (1980). Solvent was 8% ether in hexane. Ten micro liters of serially diluted solutions (methylene chloride) of synthetic (3Z)-lactone and (3E)-lactone were applied to filter paper strips (0.5 cm×5 cm, Whatman no. 1). The filter paper strips were placed in 14-cm-long Pasteur pipettes, hereafter referred to as stimulus cartridges, after 5 min at room temperature. Stimulus doses tested were 0.01, 0.1, 1, 10, and 100 μg. Male and female antennae were exposed to single 0.2s puffs of odor-bearing air at 5 ml/s by placing the tip of an stimulus cartridge into a hole of a glass tube (0.7 cm ID×20 cm), 10 cm from the outlet and 11 cm away from the antennal preparation. Airflow through the glass tube was humidified and set at 10 ml/s. Puff duration and airflow speeds were maintained by a stimulus flow controller (SFC-2, Syntech, Hilversum, The Netherlands). Stimuli cartridges were selected in random order, beginning with the lowest dosages and working upward to the highest dosages. Each puffed dosage was preceded and followed by a puff from a solvent blank cartridge (filter paper plus solvent). To compensate for possible deterioration of the antennal preparation, a standard control compound, geranyl acetone (1 μg dose) preceded dosages of stimuli compound. EAG amplitudes were normalized according to the responses to geranyl acetone by dividing the amplitude of the EAG generated by the test compounds by that of geranyl acetone. Dose-response series were replicated, using different antennal preparation for each replication, and the EAG responses were expressed as a percentage of the EAG responses to geranyl acetone. Each antennal preparation was tested with freshly prepared sets of stimuli cartridges. Male and female EAG responses were submitted to analysis of variance (ANOVA) using Statistica for Windows software (StatSoft Inc. Tulsa, Okla.)).

A. planipennis = test: Field trapping 2011 experiment 2: (3Z)-lactone, (3Z)-hexenol and trap height factorial, dark green traps; format: in vivo, Agrilus planipennis; conditions: 2×2×2 factorial, lactone 3 mg/lure
Procedure: Two trapping experiments were conducted in green and white ash plantations (F. pennsylvanica Marsch and F. americana L.) located 40-60 km southeast of Sarnia, Ontario in 2011. Trees were 20-30 yr old, 5-8 m tall, 12-18 cm in diameter, and spaced 2-3 m apart within and between rows. Five sites were used in total: four were green ash and the fifth was a white ash plantation. Trees at four of the sites generally appeared healthy with few or no signs of decline and only a few with obvious signs and symptoms of infestation by A. planipennis. At the fifth site, obvious crown decline and signs of infestation were apparent on about one-quarter of trees.
Green prism sticky traps (0.30 cm×35.00 cm×58.75 cm) (Synergy Semiochemicals Corp., Burnaby, BC) were used in all field trials, deployed using modified umbrella rig spreaders (Zing Products, Westport, Mass.). Traps were spaced 20-25 m apart and lure treatments replicated in randomized complete block designs. Traps were deployed either using ropes tied between two trees or using a single line over a canopy branch, as described further below for each specific experimental objective. Traps were typically checked every 2 wk and A. planipennis were collected, counted, and sexed.
Experiment 2 was a 2×2×2 factorial experiment designed to test the effects of (3Z)-lactone, (3Z)-hexenol, trap height, and their interactions on numbers of A. planipennis captured on sticky, dark green (540-nm wavelength) (Francese et al 2010a) prism traps. Traps were baited with either (3Z)-lactone, (3Z)-hexenol, (3Z)-lactone+(3Z)-hexenol, or neither compound (unbaited control) and all treatments were deployed both below the canopy or in the mid-canopy. Traps placed below the canopy were suspended from ropes tied between two trees so the trap was 1-1.5 m from either tree and the top of the trap was 1.5-2 m above the ground. Traps in the canopy were deployed from a single line looped over a mid-canopy branch such that traps were 1-1.5 m from the main stem and their tops were 6 m above ground. (3Z)-Lactone was loaded onto rubber septa lures at a dosage of 3 mg/lure. Release rates of the (3Z)-lactone and (3Z)-hexenol were 60-70 μg/day and 50-100 mg/day, respectively at 25° C. Traps were in the field from 8 June-5 August, with one block at one site (Nauvoo Ranch), 5 blocks at a second site (LaSalle, the one white ash plantation), and 4 blocks at a third site (Brook Line). The 3 mg (3Z)-lactone lures were estimated to maintain adequate release rates for a minimum of three weeks and thus were replaced after three weeks; (3Z)-hexenol lures were not replaced during the experiment.
Numbers of A. planipennis captured in the trapping experiments were subjected to ANOVA separately for males and females. […]

O=C1C/C=C/CCCCCCCCO1 [(3E)-lactone, (3E)-dodecen-12-olide]
EAG responsiveness of female antennae compared with male antennae (A. planipennis antennae): more responsive
EAG response of female antennae, (3Z)- vs (3E)-lactone (A. planipennis antennae): did not respond differently

O=C1C/C=C\CCCCCCCCO1 [(3Z)-lactone, (3Z)-dodecen-12-olide]
EAG responsiveness of female antennae compared with male antennae (A. planipennis antennae): more responsive
EAG response of female antennae, (3Z)- vs (3E)-lactone (A. planipennis antennae): did not respond differently
mean capture of males per trap, effect of presence of the lure component (A. planipennis): significantly and positively affected
mean catch of females, effect of the lure component (A. planipennis): not
